# Source: PubChem BioAssay AID1996
# Conditions: buffer; pH 7.4; 200.0 µM
row,Compound,solubility kinetic [µg/mL]
1,Cc1cccc(C)c1OCC(O)CNC(C)c1ccccc1.Cl (stereo not drawn),> 50.4
2,Cc1ccc(S(=O)(=O)N2CCCCC2)cc1C(=O)NCc1ccccn1,52
3,Cc1ccc(C(CC(=O)O)NC(=O)CCNC(=O)c2ccco2)cc1 (stereo not drawn),> 51.7
4,Cc1ccsc1-c1nc(CN2CCN(C)C(=O)[C@@H]2C)c(C)o1,40
5,Cc1ccc(CN2CCCN(Cc3ccc(C)cc3)S2(=O)=O)cc1,< 0.4
6,OC[C@H]1O[C@@H](n2cnc3c(NC4CCCC4)ncnc32)[C@H](O)[C@@H]1O,> 50.3
7,O=S(=O)(c1ccccc1)c1nc(-c2ccccc2Cl)oc1NCCCN1CCOCC1,3.6
8,COCc1nc2ccccc2n1Cc1ccccc1C,> 40
9,O=C(CCC(=O)c1ccccc1)Nc1ccc(C(=O)O)cc1,> 44.6
10,OCC(O)CN1CCCC1 (stereo not drawn),21.4
11,CCN(C(=O)COC(=O)C1=COCCO1)c1ccccc1,> 43.7
12,Cc1ccc(OCc2ccc(-c3ccccc3)cc2)c([N+](=O)[O-])n1,0.4
13,CN(C)C(=O)COC(=O)c1ccccc1NC(=O)c1ccco1,> 47.4
14,Cc1cc(NC(=O)COC(=O)c2cccc(O)c2)no1,> 41.4
15,CCOC(=O)C1(CC2CC2)CCN(S(=O)(=O)/C=C/c2ccccc2)CC1,3.6
16,CCOC(=O)C1CCCN(CC(=O)Nc2cccc(C(C)=O)c2)C1 (stereo not drawn),46
17,Cl.O=C(NCC(c1ccc(F)cc1)N1CCOCC1)c1ccc([N+](=O)[O-])o1 (stereo not drawn),> 60
18,Cc1c(C(C)(C)C)s/c(=N/S(=O)(=O)c2ccccc2)n1C,43.7
19,COCc1cccc(C(=O)NC(c2ccccc2)c2ccccc2)c1,3.1
20,CCC(=NCCN1CCOCC1)c1c(O)n(C2CCCCC2)c(=O)[nH]c1=O,52.6
21,O=C(N1CCN(CCO)CC1)N1c2ccccc2CCc2ccccc21,45.9
22,CSc1ncccc1C(=O)OCC(=O)N(C)C,> 38.1
23,CC(C)OC(=O)/C(=C\c1cccnc1)NC(=O)c1ccccc1,> 46.6
24,CCCS(=O)(=O)c1cnc(C2COc3ccccc3O2)nc1N (stereo not drawn),12.7

row,Compound,solubility kinetic [µg/mL]
1,CCC(CC)C(=O)Nc1cccc(C(=O)NC(C)(C)C)c1,> 43.6
2,COc1ccc([N+](=O)[O-])cc1NC(=O)C1(c2ccccc2)CCOCC1,6.7
3,COc1ccc(-n2nc(C)cc2Nc2ccccc2C(=O)O)cc1,> 48.5
4,S=c1[nH]nc(C2CCCCC2)o1,> 27.6
5,Cc1ccc(C)c(NS(=O)(=O)c2csc(C(N)=O)c2)c1,36.3
6,COc1cc(C=NNC(=O)c2ccccc2-n2cccc2)ccc1O,> 50.3
7,O=C(CNC(=O)C1CCCCC1)OCC(=O)c1ccc(F)cc1,> 48.2
8,CSc1ncc(C(=O)Nc2cccc(C)c2C)c(C)n1,17
9,Cc1ccc2cccc(OC(=O)/C=C\c3ccccc3)c2n1,16.8
10,Cc1nc2sc3c(c2c(=O)n1NC(=O)CCl)CCCC3,> 46.8
11,CCOC(=O)Cc1csc(NC(=O)c2cccc([N+](=O)[O-])c2)n1,> 50.3
12,Cc1ccc(N(C)S(=O)(=O)c2cccc(C(=O)N3CCN(Cc4ccccc4)CC3)c2)cc1,23
13,COc1ccc(C(=O)O)cc1S(=O)(=O)NC1CCN(Cc2ccccc2)CC1,59.1
14,CC(=O)c1cn(CC(=O)Nc2ccccc2F)c2ccccc12,9.4
15,CC(=O)N1CCc2cc(S(=O)(=O)N3CCCCC3C)ccc21 (stereo not drawn),9.4
16,Cc1ccc(OCC(O)CNC2CCCC2)cc1C.Cl (stereo not drawn),> 45
17,OC(c1nc2ccc(F)cc2[nH]1)C(O)c1nc2ccc(F)cc2[nH]1 (stereo not drawn),> 49.5
18,Fc1ccc(NC(=S)Nc2cccnc2)cc1Cl,> 42.3
19,Cc1c(NC(=O)COC(=O)c2ccc(Cl)nc2)c(=O)n(-c2ccccc2)n1C,> 60.1
20,COc1cc(OC)c(C2Nc3cccc4cccc(c34)N2)c(OC)c1,4.4
21,CC1=NCCN1CCNC(=O)Nc1ccc(C(C)(C)C)cc1,> 45.4
22,COc1ccc(Nc2ncc(F)c(N3CCOCC3)n2)cc1,3.8
23,CCN1CCN(C(=O)c2cc3cc(Cl)ccc3[nH]2)CC1,> 43.8
24,CCOc1ccc(OCc2ccc(C(=O)NC(C)(C)C)o2)cc1,8.8

row,Compound,solubility kinetic [µg/mL]
1,CC1(C)CC(NC(=O)c2ccc(Cl)cc2)CC(C)(C)N1,> 44.2
2,CC(C)C(NC(=O)c1ccc(Cl)cc1)C(=O)NCC1CCCO1 (stereo not drawn),> 50.8
3,CCC1Oc2ccccc2N(CC(=O)NC2CC2)C1=O (stereo not drawn),> 41.1
4,CCOc1ccc(N2CC(C(=O)N3CCCCCC3)CC2=O)cc1 (stereo not drawn),> 49.6
5,CN1CCOCCOCCOCCN(C)C1=S,> 39.4
6,Cc1ccc(NC(=O)COC(=O)CNC(=O)C2CCCCC2)cc1S(=O)(=O)N(C)C,> 65.9
7,COc1ccc([N+](=O)[O-])cc1NC(=O)Cc1noc2ccccc12,0.3
8,CC1=C(C#N)C(c2ccc(O)cc2)C(C#N)=C(C)N1,> 37.7
9,Cc1ccc(NC(=S)N2CCCCCC2)c(C)c1,> 39.4
10,COc1ccc(CCC(=O)Nc2nccs2)cc1OC,> 43.9
11,CCCCN1C(=O)C(=O)N(CC(=O)c2ccc[nH]2)C1=O,> 41.6
12,Cc1ccc(C(O)CCc2ccc(N)cc2)cc1 (stereo not drawn),31.9
13,CN(C)c1cccc(C(=O)OCC(=O)NC2CCCC2)c1,36.6
14,Cl.O=C(NCCN1CCOCC1)c1ccc(S(=O)(=O)Nc2ccccc2)cc1,> 63.9
15,CC(=O)N/C(=C\c1ccccc1)C(=O)OCC(=O)Nc1ccc(C)c(S(=O)(=O)N(C)C)c1,56.9
16,Cc1cc(NC(=O)Nc2ccc(Cl)cc2)no1,1.4
17,Cc1ccc(N(CN2CCCC2=O)C(=O)c2ccccc2)cc1,> 46.3
18,CC1(c2ccc([N+](=O)[O-])cc2)Nc2ccccc2S1 (stereo not drawn),12.1
19,COc1ccc(C(=O)NCc2ccc3c(c2)OCO3)cc1,42.4
20,O=C1CCC([N+](=O)[O-])C(c2cccc([N+](=O)[O-])c2)N1 (stereo not drawn),> 39.8
21,Cc1ccc(OCCCC(=O)NCc2ccco2)c(C)c1,> 43.1
22,Cc1ccc(COc2ccc(C)nc2[N+](=O)[O-])cc1,1.2
23,CN(Cc1ccc(C(F)(F)F)cc1)C(=O)C1CC(=O)N(Cc2ccco2)C1 (stereo not drawn),51.8
24,Cc1ccnc(NC(=O)COC(=O)C23CC4CC(CC(C4)C2)C3)n1,8.7

row,Compound,solubility kinetic [µg/mL]
1,O=C(Cc1ccccc1)c1c[nH]c(C(=O)NCCCn2ccnc2)c1,> 50.5
2,COc1cc(C)ccc1OCC(=O)NC1CCCCCC1,40.5
3,Cc1ccc(N2CC(C(=O)NCc3ccco3)CC2=O)cc1Cl (stereo not drawn),30.8
4,C=CCC(C(=O)OC)(C(=O)OC)c1ccccc1[N+](=O)[O-],> 44
5,COc1ccc(C)cc1S(=O)(=O)n1c([N+](=O)[O-])cnc1C,> 46.7
6,Cc1nnc(NC(=O)C2CCCC2)s1,> 31.7
7,CNC(=O)CSc1nc2ccccc2c(=O)n1C1CCCCC1,> 49.7
8,CC(C)n1c(N2CCCC2)nc2c1c(=O)[nH]c(=O)n2C,> 41.6
9,Cn1c(=O)[nH]c(=O)c2c1nc(N)n2Cc1ccccc1,> 40.7
10,C/C(Cn1ncc(N2CCOCC2)c(Cl)c1=O)=N\O,> 43
11,COc1ccc(C(=O)NC(C)CCc2ccccc2)c(OC)c1 (stereo not drawn),41.5
12,CC(=O)CC(C)(C)NC(C)=S,> 26
13,CCOc1cc(/C=C2\NC(=O)NC2=O)ccc1OC(C)C(=O)O (stereo not drawn),> 48
14,CC(C)Nc1nc(SC(C)C(=O)Nc2ccccc2)nc(N(C)C)n1 (stereo not drawn),26.5
15,CCNC(=O)CSc1nc2sccc2c(=O)n1-c1ccccc1,> 51.8
16,CN(CC(=O)O)S(=O)(=O)c1ccc2[nH]c(=O)c(=O)[nH]c2c1,> 47
17,CC1(C)Oc2ccc3ccc(=O)oc3c2C(/C=N/O)=C1Cl,12.5
18,Cc1ccc2c(CN3CC(C)CC(C)C3)cc(=O)oc2c1 (stereo not drawn),4.3
19,CCCN(CC1CC1)C(=S)NC(=O)C1CC1,> 36.1
20,CCNC(=O)[C@H]1O[C@@H](n2cnc3c(N)ncnc32)[C@H](O)[C@@H]1O,> 46.2
21,COc1ccc(OC)c(CC(=O)Nc2ccc3c(c2)CCC3)c1,4.1
22,COCCNc1ncnc2c1nc1n2CCCC1,> 37.1
23,Cc1cccc(OCC(=O)N2CCCc3ccccc32)c1,30.3
24,Cc1cc(C(=O)Nc2ccc(F)c(Cl)c2)on1,18.3

row,Compound,solubility kinetic [µg/mL]
1,OCCNCC(O)CN1c2ccccc2Sc2ccccc21 (stereo not drawn),> 47.5
2,S=C(Nc1ccccc1)N1CCc2ccccc21,23.8
3,CC(=O)Nc1ccc(SCC(=O)c2cc(C)ccc2C)cc1,28
4,CCCS(=O)(=O)Nc1cccc(-c2nc3cccnc3s2)c1,2.4
5,COc1ccc(-c2csc(NC(=O)c3ccccc3F)n2)cc1,0.5
6,O=C(CCCCC(=O)Nc1ccccc1)Nc1ccccc1,3.1
7,NS(=O)(=O)c1ccc(NC(=O)c2ccc(S(=O)(=O)N3CCCCC3)cc2)cc1,2.1
8,NC(=O)c1ccc(NCC2CCCO2)c([N+](=O)[O-])c1 (stereo not drawn),> 39.8
9,COc1ccccc1NC(=O)CSc1nncs1,> 42.2
10,CCOC(=O)c1c(NC(=S)N2CCOCC2)sc(C)c1C,< 0.4
11,COc1ccc(CNC(=O)N2CCc3ccccc3C2)cc1Cl,30.4
12,CC1(C)OC(=O)C(=NNc2ccc(C(=O)O)cc2)C(=O)O1,> 43.8
13,Cc1nccn1-c1c([N+](=O)[O-])c(=O)n(C)c2ccccc12,> 42.6
14,N#CC1=C(N)NC(=S)C(C(N)=O)C1c1ccc(Cl)cc1Cl (stereo not drawn),11.7
15,O=C(CNC(=O)c1ccccc1F)c1ccccc1,32.5
16,Cc1ccc(OCC(=O)O/N=C(\N)Cc2ccc([N+](=O)[O-])cc2)cc1C,9.4
17,COc1ccc(S(=O)(=O)NCc2ccccn2)cc1Br,> 53.6
18,N#Cc1ccc(-c2cccnc2)nc1SCC(N)=O,38.2
19,COc1ccccc1NC(=O)CN1CCOCC1,> 37.5
20,Cc1cccnc1NC(=O)CCCc1c[nH]c2ccccc12,36.8
21,CC(C)Cn1c(N)c(C=O)c(=O)[nH]c1=O,> 31.7
22,Cn1c(N)c(C(=O)COC(=O)COc2cccc(Br)c2)c(=O)n(C)c1=O,11.3
